In patent US12583866B2, “Pyrido[2,3-b][1,4]oxazines or tetrahydropyrido[2,3-b][1,4]oxazepines as IAP antagonists” (BEIGENE, LTD., priority 2020, dated 2026):

Tests used:
[1] = molecular target: T1, recombinant human cIAP2-BIR3 protein (Homo sapiens, UniProt Q13489); experiment: Recombinant human c-IAP2-BIR3 biochemical assay (HTRF, peptide displacement); settings: 3.7 nM cIAP2-BIR3, 3.7 nM AbuRPF-K(5-Fam)-NH2 peptide, read-out: Protein binding IC50 (nM) c-IAP2
T1 construct: recombinant human cIAP2-BIR3 protein; purchased Reaction biology APT-11-372
T1 sequence (Q13489 238-349 limits assumed): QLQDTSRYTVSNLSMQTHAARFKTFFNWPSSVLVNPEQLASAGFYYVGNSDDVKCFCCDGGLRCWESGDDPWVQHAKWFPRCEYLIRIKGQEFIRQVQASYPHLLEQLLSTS
How it was run: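 3.7 nM protein pre-incubated 1 h at room temperature with compounds (top 10 uM, 4-fold, 10 points) in 20 mM HEPES pH 7.5, 50 mM NaCl, 0.005% Tween-20, 1 mM DTT. Then 3.7 nM AbuRPF-K(5-Fam)-NH2 for 1 h, then anti-6His Tb cryptate 1 h. IC50 from 520/490 nm HTRF ratio, four-parameter logistic fit.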

[2] = molecular target: T2, recombinant human XIAP-BIR3 protein (Homo sapiens, UniProt P98170); experiment: Recombinant human XIAP-BIR3 biochemical assay (HTRF, peptide displacement); settings: 3.7 nM XIAP-BIR3, 7.6 nM AbuRPF-K(5-Fam)-NH2 peptide, read-out: Protein binding IC50 (nM) XIAP
T2 construct: recombinant human XIAP-BIR3 protein; purchased Reaction biology APT-11-374
T2 sequence (P98170 241-356 limits assumed): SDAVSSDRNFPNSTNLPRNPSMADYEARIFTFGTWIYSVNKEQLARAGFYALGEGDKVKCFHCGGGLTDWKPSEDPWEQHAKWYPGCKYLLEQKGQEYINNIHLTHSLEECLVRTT
How it was run: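 3.7 nM His-tagged XIAP-BIR3 was preincubated 1 h RT with compound (top 10 µM, 4-fold, 10 points) in 20 mM HEPES pH 7.5, 50 mM NaCl, 0.005% Tween-20, 1 mM DTT. 7.6 nM AbuRPF-K(5-Fam)-NH2 peptide was then added, followed by anti-6His Tb cryptate, 1 h each. HTRF 520/490 nm ratio; four-parameter logistic IC50.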

[3] = molecular target: T3, recombinant human cIAP1-BIR3 protein (Homo sapiens, UniProt Q13490); experiment: Recombinant human c-IAP1-BIR3 biochemical assay (HTRF, peptide displacement); settings: 1.2 nM cIAP1-BIR3, 3 nM AbuRPF-K(5-Fam)-NH2 peptide, read-out: Protein binding IC50 (nM) c-IAP1
T3 construct: recombinant human cIAP1-BIR3 protein; purchased Reaction biology APT-11-370
T3 sequence (Q13490 253-363 limits assumed): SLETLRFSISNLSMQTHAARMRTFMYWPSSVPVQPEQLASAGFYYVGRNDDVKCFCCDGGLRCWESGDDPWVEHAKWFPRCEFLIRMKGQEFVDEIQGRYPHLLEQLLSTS
How it was run: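 1.2 nM cIAP1-BIR3 preincubated 1 h at room temperature with compound (10 points, 4-fold, top 10 uM) in 20 mM HEPES pH 7.5, 50 mM NaCl, 1 mM DTT; 3 nM AbuRPF-K(5-Fam)-NH2 then added for 1 h, then anti-6His Tb cryptate for 1 h. 520/490 nm ratio; IC50 by four-parameter logistic fit.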

| IC50 [1] | IC50 [2] | IC50 [3] | SMILES |
| --- | --- | --- | --- |
| 0.4 nM | 7.2 nM | 0.2 nM | C[C@@H]1CN(CC(=O)N2c3cc(Cc4ccc(F)cc4F)c(C(N)=O)nc3OC[C@@H]2C)[C@@H](CN2[C@H](C)COC[C@H]2C)CN1 [Example 83, (S)-7-(2,4-difluorobenzyl)-1-(2-((2R,5R)-2-(((3R,5R)-3,5-dimethylmorpholino)methyl)-5-methylpiperazin-1-yl)acetyl)-2-methyl-2,3-dihydro-1H-pyrido[2,3-b][1,4]oxazine-6-carboxamide] |
| 0.57 nM | 7.9 nM | 0.26 nM | C[C@@H]1CN(CC(=O)N2c3cc(Cc4ccc(F)cc4)c(C(=O)Nc4ccc(F)cc4)nc3OC[C@@H]2C)[C@@H](CN2[C@H](C)COC[C@H]2C)CN1 [Example 71, (S)-1-(2-((2R,5R)-2-(((3R,5R)-3,5-dimethylmorpholino)methyl)-5-methylpiperazin-1-yl)acetyl)-7-(4-fluorobenzyl)-N-(4-fluorophenyl)-2-methyl-2,3-dihydro-1H-pyrido[2,3-b][1,4]oxazine-6-carboxamide] |
| 0.24 nM | 4.3 nM | 0.16 nM | CC(=O)Nc1nc2c(cc1Cc1ccc(F)cc1)N(C(=O)CN1C[C@@H](C)NC[C@@H]1CN1[C@H](C)COC[C@H]1C)[C@@H](C)CO2 [Compound 116] |
| 0.73 nM | 10 nM | 0.54 nM | C[C@@H]1CN(CC(=O)N2c3cc(Cc4ccc(F)cc4)c(C(N)=O)nc3OC[C@@H]2C)[C@@H](CN2CCOC[C@H]2C(F)F)CN1 [Example 82] |
| 0.3 nM | 4.9 nM | 0.22 nM | C[C@@H]1CN(CC(=O)N2c3cc(Cc4ccc(F)cc4)c(C(=O)N(C)C)nc3OC[C@@H]2C)[C@@H](CN2[C@H](C)COC[C@H]2C)CN1 [Example 80, (S)-1-(2-((2R,5R)-2-(((3R,5R)-3,5-dimethylmorpholino)methyl)-5-methylpiperazin-1-yl)acetyl)-7-(4-fluorobenzyl)-N,N,2-trimethyl-2,3-dihydro-1H-pyrido[2,3-b][1,4]oxazine-6-carboxamide] |
| 0.28 nM | 4.4 nM | 0.15 nM | C[C@@H]1CN(CC(=O)N2c3cc(Cc4ccc(F)cc4)c(C(=O)NC4CCOCC4)nc3OC[C@@H]2C)[C@@H](CN2[C@H](C)COC[C@H]2C)CN1 [Example 76, (S)-1-(2-((2R,5R)-2-(((3R,5R)-3,5-dimethylmorpholino)methyl)-5-methylpiperazin-1-yl)acetyl)-7-(4-fluorobenzyl)-2-methyl-N-(tetrahydro-2H-pyran-4-yl)-2,3-dihydro-1H-pyrido[2,3-b][1,4]oxazine-6-carboxamide] |
| 0.27 nM | 1.9 nM | 0.16 nM | C[C@@H]1CN(CC(=O)N2c3cc(Cc4ccc(F)cc4)c(C(=O)NCC4CC4)nc3OC[C@@H]2C)[C@@H](CN2[C@H](C)COC[C@H]2C)CN1 [Example 70, (S)—N-(cyclopropylmethyl)-1-(2-((2R,5R)-2-(((3R,5R)-3,5-dimethylmorpholino)methyl)-5-methylpiperazin-1-yl)acetyl)-7-(4-fluorobenzyl)-2-methyl-2,3-dihydro-1H-pyrido[2,3-b][1,4]oxazine-6-carboxamide] |
| 0.35 nM | 11.3 nM | 0.28 nM | C[C@@H]1CN(CC(=O)N2c3cc(Cc4ccc(F)cc4)c(CO)nc3OC[C@@H]2C)[C@@H](CN2[C@H](C)CN(C)C[C@H]2C)CN1 [Compound 105, 1-((S)-7-(4-fluorobenzyl)-6-(hydroxymethyl)-2-methyl-2,3-dihydro-1H-pyrido[2,3-b][1,4]oxazin-1-yl)-2-((2R,5R)-5-methyl-2-(((2R,6R)-2,4,6-trimethylpiperazin-1-yl)methyl)piperazin-1-yl)ethan-1-one] |

More lines, now with the values behind:

| SMILES | IC50 [1] | IC50 [2] | IC50 [3] |
| --- | --- | --- | --- |
| CC(C)OC[C@H]1COc2ncc(Cc3ccc(F)cc3)cc2N1C(=O)CN1C[C@@H](C)NC[C@@H]1CN1CCOC[C@H]1C [Compound 38, 1-((S)-7-(4-fluorobenzyl)-2-(isopropoxymethyl)-2,3-dihydro-1H-pyrido[2,3-b][1,4]oxazin-1-yl)-2-((2R,5R)-5-methyl-2-(((R)-3-methylmorpholino)methyl)piperazin-1-yl)ethan-1-one] | 0.83 nM | 49 nM | 0.26 nM |
| CCOC[C@@H]1COCCN1C[C@H]1CN[C@H](C)CN1CC(=O)N1c2cc(Cc3ccc(F)cc3)c(CO)nc2OC[C@@H]1C [Compound 53] | 1.2 nM | 12 nM | 0.46 nM |
| C[C@@H]1CN(CC(=O)N2CCOc3nc(C4CC4)c(Cc4ccc(F)cc4)cc32)[C@@H](CN2CCOC[C@H]2C)CN1 [Compound 6, 1-(6-cyclopropyl-7-(4-fluorobenzyl)-2,3-dihydro-1H-pyrido[2,3-b][1,4]oxazin-1-yl)-2-((2R,5R)-5-methyl-2-(((R)-3-methylmorpholino)methyl)piperazin-1-yl)ethan-1-one] | 3 nM | 61 nM | 1.1 nM |
| C[C@@H]1CN(CC(=O)N2c3cc(Cc4ccc(F)cc4)c(CO)nc3OC[C@@H]2C)[C@@H](CN2CCOCC23CCC3)CN1 [Compound 56, 2-((2R,5R)-2-((8-oxa-5-azaspiro[3.5]nonan-5-yl)methyl)-5-methylpiperazin-1-yl)-1-((S)-7-(4-fluorobenzyl)-6-(hydroxymethyl)-2-methyl-2,3-dihydro-1H-pyrido[2,3-b][1,4]oxazin-1-yl)ethan-1-one] | 2.2 nM | 30 nM | 1 nM |
| CC(C)OC[C@@H]1COCCN1C[C@H]1CN[C@H](C)CN1CC(=O)N1c2cc(Cc3ccc(F)cc3)c(CO)nc2OC[C@@H]1C [Compound 59] | 0.67 nM | 7.8 nM | 0.26 nM |
| C[C@@H]1CN(CC(=O)N2c3cc(Cc4ccc(F)cc4)c(C(=O)N4CC[C@H](F)C4)nc3OC[C@@H]2C)[C@@H](CN2[C@H](C)COC[C@H]2C)CN1 [Compound 100, 2-((2R,5R)-2-(((3R,5R)-3,5-dimethylmorpholino)methyl)-5-methylpiperazin-1-yl)-1-((S)-7-(4-fluorobenzyl)-6-((S)-3-fluoropyrrolidine-1-carbonyl)-2-methyl-2,3-dihydro-1H-pyrido[2,3-b][1,4]oxazin-1-yl)ethan-1-one] | 0.44 nM | 4.2 nM | 0.17 nM |
| C[C@@H]1CN(CC(=O)N2c3cc(Cc4ccc(F)cc4)c(C(N)=O)nc3OC[C@@H]2C)[C@@H](CN2CCOC[C@H]2C)CN1 [Compound 31, (S)-7-(4-fluorobenzyl)-2-methyl-1-(2-((2R,5R)-5-methyl-2-(((R)-3-methylmorpholino)methyl)piperazin-1-yl)acetyl)-2,3-dihydro-1H-pyrido[2,3-b][1,4]oxazine-6-carboxamide] | 0.71 nM | 5.6 nM | 0.33 nM |
| CCOc1nc2c(cc1Cc1ccc(F)cc1)N(C(=O)CN1C[C@@H](C)NC[C@@H]1CN1[C@H](C)COC[C@H]1C)[C@@H](C)CO2 [Compound 87] | 0.23 nM | 3.3 nM | 0.18 nM |
| C[C@@H]1CN(CC(=O)N2CCOc3nc(C4(O)CC4)c(Cc4ccc(F)cc4)cc32)[C@@H](CN2CCOC[C@H]2C)CN1 [Compound 21, 1-(7-(4-fluorobenzyl)-6-(1-hydroxycyclopropyl)-2,3-dihydro-1H-pyrido[2,3-b][1,4]oxazin-1-yl)-2-((2R,5R)-5-methyl-2-(((R)-3-methylmorpholino)methyl)piperazin-1-yl)ethan-1-one] | 5.75 nM | 41 nM | 2.6 nM |
| C[C@@H]1CN(CC(=O)N2c3cc(Cc4ccc(F)cc4)cnc3OC[C@@H]2Cc2ccccc2)[C@@H](CN2CCOC[C@H]2C)CN1 [Compound 29, 1-((S)-2-benzyl-7-(4-fluorobenzyl)-2,3-dihydro-1H-pyrido[2,3-b][1,4]oxazin-1-yl)-2-((2R,5R)-5-methyl-2-(((R)-3-methylmorpholino)methyl)piperazin-1-yl)ethan-1-one] | 0.32 nM | 22 nM | 0.24 nM |
| C[C@@H]1CN(CC(=O)N2c3cc(Cc4ccc(F)cc4)c(C(=O)N4CC[C@@H](F)C4)nc3OC[C@@H]2C)[C@@H](CN2[C@H](C)COC[C@H]2C)CN1 [Compound 101, 2-((2R,5R)-2-(((3R,5R)-3,5-dimethylmorpholino)methyl)-5-methylpiperazin-1-yl)-1-((S)-7-(4-fluorobenzyl)-6-((R)-3-fluoropyrrolidine-1-carbonyl)-2-methyl-2,3-dihydro-1H-pyrido[2,3-b][1,4]oxazin-1-yl)ethan-1-one] | 0.37 nM | 2.5 nM | 0.19 nM |
